Data as given in ChEMBL document CHEMBL1201862, “PubChem BioAssay data set” (2004).
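Each compound was tested at five concentrations against cells in 96-well plates for 48 hours. GI50 = concentration required for 50% inhibition of growth.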 Activity calls are given as the source filed them. Rule as the data show it: active = GI50 up to about 1.1 µM and inactive = higher.

Tests used:
Experiment in all cases: NCI tumour cell line growth inhibition, 48 h
[1] = test system: Hs-578T
[2] = test system: HCT-116
[3] = test system: OVCAR-3
[4] = test system: SF-268
[5] = test system: 786-0
[6] = test system: IGROV-1
[7] = test system: SK-MEL-2
[8] = test system: COLO 205
[9] = test system: SF-539
[10] = test system: A549
[11] = test system: MDA-N
[12] = test system: UACC-257
[13] = test system: RPMI-8226
[14] = test system: SF-295
[15] = test system: HCT-15
[16] = test system: SK-MEL-28
[17] = test system: NCI-H460
[18] = test system: BT-549
[19] = test system: HOP-92
[20] = test system: NCI-H23
[21] = test system: HL-60
[22] = test system: MCF7
[23] = test system: MDA-MB-231
[24] = test system: NCI-H226
[25] = test system: TK-10
[26] = test system: K562
[27] = test system: A498
[28] = test system: ACHN
[29] = test system: RXF 393
[30] = test system: SN12C
[31] = test system: SK-MEL-5
[32] = test system: OVCAR-8
[33] = test system: U-251
[34] = test system: SNB-75
[35] = test system: NCI/ADR-RES
[36] = test system: HCC 2998
[37] = test system: UO-31
[38] = test system: SR
[39] = test system: SNB-19
[40] = test system: SW-620
[41] = test system: OVCAR-4
[42] = test system: OVCAR-5
[43] = test system: M14
[44] = test system: MOLT-4
[45] = test system: UACC-62
[46] = test system: SK-OV-3
[47] = test system: T47D
[48] = test system: LOX IMVI
[49] = test system: HT-29
[50] = test system: DU-145
[51] = test system: CAKI-1
[52] = test system: HOP-62
[53] = test system: MDA-MB-435
[54] = test system: EKVX
[55] = test system: CCRF-CEM
[56] = test system: NCI-H522
[57] = test system: KM12
[58] = test system: Malme-3M
[59] = test system: PC-3

Compound: C[C@H]1[C@H](C)CC[C@]2(C(=O)OC3OC(CO)C(O)C(O)C3O)CC[C@]3(C)C(=CC[C@@H]4[C@@]5(C)C[C@@H](O)[C@@H]6OC(=O)c7cc(O)c(O)c(O)c7-c7c(cc(O)c(O)c7O)C(=O)OC[C@]6(CO)[C@@H]5CC[C@]43C)[C@H]12 (some centres not stated)
- GI50 [1]: > 100 µM (inactive)
- GI50 [2]: 41.2 µM (inactive)
- GI50 [3]: 35.2 µM (inactive)
- GI50 [4]: > 83.4 µM (inactive)
- GI50 [5]: 14 µM (inactive)
- GI50 [6]: > 86.3 µM (inactive)
- GI50 [7]: > 65 µM (inactive)
- GI50 [8]: 41.7 µM (inactive)
- GI50 [9]: > 100 µM (inactive)
- GI50 [10]: 78 µM (inactive)
- GI50 [11]: 21.5 µM (inactive)
- GI50 [12]: > 78.3 µM (inactive)
- GI50 [13]: 66.7 µM (inactive)
- GI50 [14]: 29.2 µM (inactive)
- GI50 [15]: 28.1 µM
- GI50 [16]: > 100 µM (inactive)
- GI50 [17]: 23.7 µM (inactive)
- GI50 [18]: > 100 µM (inactive)
- GI50 [19]: 63.1 µM (inactive)
- GI50 [20]: 46.8 µM (inactive)
- GI50 [21]: 25.9 µM (inactive)
- GI50 [22]: 7.1 µM (inactive)
- GI50 [23]: 12.4 µM (inactive)
- GI50 [24]: 67.8 µM (inactive)
- GI50 [25]: > 100 µM (inactive)
- GI50 [26]: 45.7 µM (inactive)
- GI50 [27]: > 100 µM (inactive)
- GI50 [28]: > 73.3 µM (inactive)
- GI50 [29]: > 91.4 µM (inactive)
- GI50 [30]: 30.5 µM (inactive)
- GI50 [31]: 39.8 µM (inactive)
- GI50 [32]: 29.6 µM (inactive)
- GI50 [33]: 16.4 µM (inactive)
- GI50 [34]: > 88.5 µM (inactive)
- GI50 [35]: > 62.4 µM (inactive)
- GI50 [36]: 17.3 µM (inactive)
- GI50 [37]: 56.9 µM (inactive)
- GI50 [38]: 17.3 µM (inactive)
- GI50 [39]: 26.5 µM (inactive)
- GI50 [40]: 27.4 µM (inactive)
- GI50 [41]: 14.7 µM (inactive)
- GI50 [42]: > 67.9 µM (inactive)
- GI50 [43]: 97.9 µM (inactive)
- GI50 [44]: 17.7 µM (inactive)
- GI50 [45]: 70.6 µM (inactive)
- GI50 [46]: 31.7 µM (inactive)
- GI50 [47]: 42.7 µM (inactive)
- GI50 [48]: 12.6 µM (inactive)
- GI50 [49]: 19.1 µM (inactive)
- GI50 [50]: > 100 µM (inactive)
- GI50 [51]: 17 µM (inactive)
- GI50 [52]: 30.9 µM (inactive)
- GI50 [53]: 17.8 µM (inactive)
- GI50 [54]: 36.7 µM (inactive)
- GI50 [55]: 20.8 µM (inactive)
- GI50 [56]: 13.6 µM (inactive)
- GI50 [57]: 24.2 µM (inactive)
- GI50 [58]: > 100 µM (inactive)
- GI50 [59]: > 62.4 µM (inactive)

Compound: COC(=O)C1=C(O)C(C(=O)OC)C2CC(=O)CC1C2(C)C (configuration not stated)
- GI50 [1]: 11.2 µM (inactive)
- GI50 [2]: > 100 µM (inactive)
- GI50 [3]: > 100 µM (inactive)
- GI50 [4]: > 100 µM (inactive)
- GI50 [5]: > 100 µM (inactive)
- GI50 [6]: > 100 µM (inactive)
- GI50 [7]: > 100 µM (inactive)
- GI50 [8]: > 100 µM (inactive)
- GI50 [9]: > 100 µM (inactive)
- GI50 [10]: > 100 µM (inactive)
- GI50 [11]: > 100 µM (inactive)
- GI50 [12]: > 100 µM (inactive)
- GI50 [13]: > 100 µM (inactive)
- GI50 [14]: > 100 µM (inactive)
- GI50 [15]: > 100 µM
- GI50 [16]: > 100 µM (inactive)
- GI50 [17]: > 100 µM (inactive)
- GI50 [18]: > 100 µM (inactive)
- GI50 [19]: > 100 µM (inactive)
- GI50 [20]: > 100 µM (inactive)
- GI50 [21]: > 100 µM (inactive)
- GI50 [22]: > 100 µM (inactive)
- GI50 [23]: > 100 µM (inactive)
- GI50 [24]: > 100 µM (inactive)
- GI50 [25]: > 100 µM (inactive)
- GI50 [26]: > 100 µM (inactive)
- GI50 [27]: > 100 µM (inactive)
- GI50 [28]: > 100 µM (inactive)
- GI50 [29]: > 100 µM (inactive)
- GI50 [30]: > 100 µM (inactive)
- GI50 [31]: > 100 µM (inactive)
- GI50 [32]: > 100 µM (inactive)
- GI50 [33]: > 100 µM (inactive)
- GI50 [34]: 88.9 µM (inactive)
- GI50 [35]: > 100 µM (inactive)
- GI50 [36]: > 100 µM (inactive)
- GI50 [37]: > 100 µM (inactive)
- GI50 [38]: > 100 µM (inactive)
- GI50 [39]: > 100 µM (inactive)
- GI50 [40]: > 100 µM (inactive)
- GI50 [41]: > 100 µM (inactive)
- GI50 [42]: > 100 µM (inactive)
- GI50 [43]: > 100 µM (inactive)
- GI50 [44]: > 100 µM (inactive)
- GI50 [45]: > 100 µM (inactive)
- GI50 [46]: > 100 µM (inactive)
- GI50 [47]: > 100 µM (inactive)
- GI50 [49]: > 100 µM (inactive)
- GI50 [50]: > 100 µM (inactive)
- GI50 [51]: > 100 µM (inactive)
- GI50 [52]: > 100 µM (inactive)
- GI50 [53]: > 100 µM (inactive)
- GI50 [54]: > 100 µM (inactive)
- GI50 [55]: > 100 µM (inactive)
- GI50 [56]: > 100 µM (inactive)
- GI50 [57]: > 100 µM (inactive)
- GI50 [58]: > 100 µM (inactive)
- GI50 [59]: > 100 µM (inactive)
